# Experiments:
# [1] = test system: Chinese patients with T2D; assay: Mixed-meal tolerance test (MTT) and fasting: OXM; type: in vivo, human; details: week 12; patients receiving IBI362
# Method: HbA1c (2200101, Bio-Rad, USA), blood glucose (05168791190, Roche Diagnostics, Germany), insulin (12017547122, Roche Diagnostics, Germany), C peptide (03184897190, Roche Diagnostics, Germany), total GLP-1 (GLP-1 [7–36] amide and its metabolite, GLP-1 [9–36] amide, 10-1278-01, Mercodia AB, Sweden) and OXM (AL-139, AnshLabs, USA) tests were performed according to the manufactures’ instruction manuals in a central laboratory (KingMed Diagnostics, Guangzhou, China). HbA1c was measured using a Bio-rad D-100 Haemoglobin Testing System (Bio-rad). Blood glucose was measured using a Roche Cobas c702 analyser (Roche Diagnostics). Insulin and C peptide were measured using a Roche […] analyser (Roche Diagnostics). GLP-1 and OXM were measured using a Tecan Infinite M Plex microplate reader (TECAN).
# Standard non-compartmental pharmacokinetics methods were used to analyze IBI362 plasma concentration data using Pkanalix 2020R1 (Lixoft, Antony, France). Secondary efficacy outcomes included change from baseline to week 12 in HbA1c, fasting plasma glucose (FPG), fasting insulin levels, change from baseline to week 12 in post-mixed-meal tolerance test (post-MTT) glucose, insulin, C peptide, GLP-1 and OXM levels, as well as seven-point self-measured blood glucose (SMBG) profile. […]
# bag is added and mixed well. The time is counted from the first bite of eating. […]
# [2] = Physical and chemical characteristics of drug substance (solubility, PI); type: physicochemical
# Excerpt: IBI362 Innovent Biologics (Suzhou) Co., Ltd. CIBI362A101
# IBI362 or placebo, the patient, the investigator, and all personnel involved in the clinical evaluation will be blinded to the treatment from the randomization to database locked, […]
# Different drug numbers corresponded to random numbers after randomization in the IWRS, and the unblinding information remained unknown to patients and investigators throughout the trial. The randomization table will be kept by a designated […]
# The study drug and placebo will be packaged, labeled, administered at the same time, and will have the appearance, taste, and smell exactly the same to hide the real situation of the treatment drug.
# If necessary for the safety of the subject, emergency unblinding must be performed […]
# If a patient is randomized to receive active control, the patient will not be blinded.
# Sponsor will not be blinded during this study.
# 5.2.1 Physical and Chemical Characteristics of Drug Substance
# Molecular weight: 4560.32 Dalton
# Description: White to off-white powder
# Solubility: Vehicle: 20 mM Tris buffer pH 8.0 and
# Solubility: Not less than 10 mg/mL at
# Solubility Description: Sparingly or
# 5.2.2 Study Drug Strength and Manufacturer
# IBI362 is formulated as IBI362 for injection in a strength of 2 mg per vial and […]
# The strength of the formulation used in this study is 2 mg/vial; Manufacturer: […]
# human GLP-1 receptors = details: in vitro; cited from earlier work
# Excerpt: (§1) IBI362 (also known as LY3305677) is a once-weekly synthetic peptide analogue of mammalian OXM, with a fatty-acyl moiety to extend the half-life[13].
# human glucagon receptors = details: in vitro; cited from earlier work
# Excerpt: as §1
# mice = details: cited from earlier work
# Excerpt: as §1
# mouse GLP-1 receptors = details: in vitro; cited from earlier work
# Excerpt: as §1
# mouse glucagon receptors = details: in vitro; cited from earlier work
# Excerpt: as §1
# diet-induced obese mice = details: preclinical data quoted in the protocol, ref not given; cited from earlier work
# Excerpt: page 42: IBI362 Innovent Biologics (Suzhou) Co., Ltd. CIBI362A101 3%, abdominal obesity [waist circumference ≥ 90 cm (male) or ≥ 85 cm (female)] patients up to 45. 4% [15]. Although the occurrence of obesity is low compared with Caucasians, body fat tends t o accumulate in the abdominal cavity which is more likely to form abdominal obesity. Weight gain is an independent risk factor for the development of T2DM. Increased body weight or waist circumference can aggravate insulin resistance, increase the risk of T2DM, and the difficulty of glycemic control. Compared with patients with obesity ...
structure (smiles),measurement,setting,value
CC(C)C[C@H](NC(=O)[C@H](CC(C)C)NC(=O)[C@H](Cc1c[nH]c2ccccc12)NC(=O)[C@H](CCC(=O)O)NC(=O)[C@@H](NC(=O)[C@H](Cc1ccccc1)NC(=O)[C@H](CCC(=O)O)NC(=O)[C@H](CCCCNC(=O)COCCOCCNC(=O)COCCOCCNC(=O)CC[C@H](NC(=O)CCCCCCCCCCCCCCCCCCC(=O)O)C(=O)O)NC(=O)[C@H](C)NC(=O)[C@H](CCCCN)NC(=O)[C@H](CCCCN)NC(=O)[C@H](CCC(=O)O)NC(=O)[C@H](CC(=O)O)NC(=O)[C@H](CC(C)C)NC(=O)[C@H](Cc1ccc(O)cc1)NC(=O)[C@H](CCCCN)NC(=O)[C@H](CO)NC(=O)[C@H](Cc1ccc(O)cc1)NC(=O)[C@H](CC(=O)O)NC(=O)[C@H](CO)NC(=O)[C@@H](NC(=O)[C@H](Cc1ccccc1)NC(=O)[C@@H](NC(=O)CNC(=O)[C@H](CCC(N)=O)NC(=O)C(C)(C)NC(=O)[C@@H](N)Cc1c[nH]cn1)[C@@H](C)O)[C@@H](C)O)C(C)C)C(=O)N[C@@H](CCC(=O)O)C(=O)NCC(=O)NCC(=O)N1CCC[C@H]1C(=O)N[C@@H](CO)C(=O)N[C@@H](CO)C(=O)NCC(N)=O [IBI362],post-MTT OXM excursion,[1],markedly suppressed
same,PI,[2]; drug substance,5.2
same,Solubility,"[2]; vehicle 20 mM Tris buffer pH 8.0 and 150 mM sodium chloride, 25℃",Not less than 10 mg/mL
same,binding,human GLP-1 receptors,potently bound
same,binding,human glucagon receptors,potently bound
same,body weight,mice; both Gcgr KO and Glp1r KO settings,decreased body weight
same,energy expenditure,mice; mice,increased energy expenditure
same,glucose control,mice; mice,improved glucose control
same,binding,mouse GLP-1 receptors,potently bound
same,binding,mouse glucagon receptors,potently bound
same,"weight loss effects (decreased appetite, weight loss)",diet-induced obese mice,significant weight loss effects
